# Source: US7947285B2, “Methods for preventing post endoscopic retrograde cholangiopancreatography pancreatitis” (priority 2003, dated 2011)
# Where no end group is shown, it is not given here.
# Legend:
# [1] = test system: patients undergoing ERCP; experiment: Return to baseline (pre-ERCP) activity and return to work; format: in vivo, human
# Experimental: (§1) Incidence of post-ERCP pancreatitis (sPS vs. placebo) was evaluated as the primary efficacy variable in this study. Secondary efficacy variables included incidences of post-ERCP pancreatitis in the following sub-populations: (1) cannulation of CBD; (2) sphincterotomy of CBD; (3) cannulation of pancreatic duct; (4) sphincterotomy of pancreatic duct; (5) stent insertion and removal into CBD; (6) stent insertion and removal into pancreatic duct; (7) stone extraction (basket) from CBD; (8) stone extraction (balloon) from CBD; (9) manometry of CBD; (10) manometry of pancreatic duct; (11) pain scores pre and post ERCP (0-10 scale); (12) nausea scores pre and post ERCP (0-10 scale); (13) vomiting scores pre and post ERCP (0-10 scale); (14) return to baseline activity (pre-ERCP); and (15) return to work.
# Additional secondary efficacy variables assessed were return to baseline (pre-ERCP levels of activity) and the time in days to return of pre-ERCP activity levels. There was a small difference in the percentage of patients reporting return to baseline activity within the follow-up period (2 to 4 days post-ERCP) favoring the placebo group (p=0.0230) (49.78% vs. 42.09%). Interims of the mean number of days required to achieve pre-ERCP activity levels, was 0.6 (±1.0) for the sPS group and 0.7 (±0.9) for the placebo group. An attempt was made to obtain information on return to work. Relatively few data points were able to be collected, however, because a large percentage of patients were not working pre-ERCP (retired, too ill, etc.) among the 185 patients (95 in the sPS group and 90 in the placebo group) providing relevant responses for this variable, 46.32% of sPS patients and 50.00% of placebo patients reported returning to work within the follow-up period.
# [2] = test system: patients undergoing ERCP; experiment: Incidence and severity of post-ERCP pancreatitis, randomized double-blind placebo controlled study; format: in vivo, human
# Source text: This was a prospectively randomized, parallel group, double-blind, placebo controlled study conducted at one center. This was the ideal study design for evaluation of the prophylactic use of sPS in ERCP to decrease the incidence of post-ERCP pancreatitis. Parallel group design was necessary because patients usually require only one ERCP and, in any case, the first procedure might have an unknown effect on the outcome of a subsequent ERCP. Double-blinding the study was necessary because a major component of the evaluation related to symptoms such as pain and nauseas, which are, in part, subjective for the patient. The final classification of each patient required an overall medical judgment by the investigator. In order for this to be as objective as possible, the assessor (Principal Investigator) had to be blinded. Placebo control with normal saline was required because there is no approved or medically accepted drug to prevent post-ERCP pancreatitis. Further, sterile normal saline, USP for injection was completely safe with no pharmacological effect and produced a clear, colorless solution, which was indistinguishable from reconstituted sPS.
# Patients undergoing ERCP for medical reasons were the appropriate population to evaluate because only those requiring ERCP have the procedure and are subject to the known risk of post-ERCP pancreatitis. The patients had to meet all of the inclusion criteria to be enrolled in the study. […] Subjects were discontinued for the following reasons: (1) voluntary withdraw at subject's request; (2) noncompliance by subject to study procedures; (3) protocol violation such as discovery of pancreas divisum at the time of the ERCP, or (4) excessive toxicity from any study procedure or drug which in the judgment of the investigator makes continuation in the study contrary to the subject's medical interests. Subjects who discontinued from the study after receiving study drug were followed for safety and were replaced.
# This study compared synthetic porcine secretin (sPS) at a dose of 16 mcg (8 mL) (24 mcg for procedures longer than 30 minutes) given as a slow IV push over one minute and an equal volume of physiologic sterile saline USP for injection. Subjects were randomly assigned to one of two treatment groups (sPS vs. saline placebo) based on a randomization schedule generated at ChiRhoClin, Inc (Burtonsville, Md.). […] The final syringe with an identical appearing clear, colorless solution of identical volume containing either reconstituted sPS or saline was then delivered to the investigator performing the ERCP. The randomization code assigned patients in a 1:1 manner between the two treatments and was balanced in blocks of 250 patients.
# as §1
# In addition, the severity of pancreatitis was graded as defined by Cotton (Cotton, PB Gastrointest. Endosc. 40(4):514-18 (1994)), using the following criteria: (1) Minimal—managed on an outpatient basis; (2) Mild—Required hospitalization ≦3 days; (3) Moderate—required hospitalization for 4 to 10 days; and (4) Severe—required hospitalization for >10 days, ICU admission, surgical intervention or death. […]
# [3] = of 44 cases, hospitalization 4 to 10 days
# [4] = of 44 cases, hospitalization >10 days, ICU, surgery or death
# [5] = of 44 cases, hospitalization ≦3 days
# [6] = of 44 cases, managed on an outpatient basis
# [7] = overall, N = 488, 16 mcg IV (24 mcg if >30 min), p 0.0161 vs placebo
# [8] = sub-population Cannulation of CBD, N = 361
# [9] = sub-population Cannulation of CBD, N = 361, p 0.0010
# [10] = sub-population Cannulation of Pancreatic Duct, N = 220
# [11] = sub-population Cannulation of Pancreatic Duct, N = 220, p 0.1237
# [12] = sub-population Manometry of CBD, N = 19
# [13] = sub-population Manometry of CBD, N = 19, p 0.0819
# [14] = sub-population Manometry of Pancreatic Duct, N = 11
# [15] = sub-population Manometry of Pancreatic Duct, N = 11, p 0.3665
# [16] = sub-population Sphincterotomy of CBD, N = 140
# [17] = sub-population Sphincterotomy of CBD, N = 140, p 0.0001
# [18] = sub-population Sphincterotomy of Pancreatic Duct, N = 26
# [19] = sub-population Sphincterotomy of Pancreatic Duct, N = 26, p 0.1666
# [20] = sub-population Stent Insertion into CBD, N = 108
# [21] = sub-population Stent Insertion into CBD, N = 108, p 0.0856
# [22] = sub-population Stent Insertion into Pancreatic Duct, N = 23
# [23] = sub-population Stent Insertion into Pancreatic Duct, N = 23, p 1.0000
# [24] = sub-population Stent Removal from CBD, N = 58
# [25] = sub-population Stent Removal from CBD, N = 58, p 0.6185
# [26] = sub-population Stent Removal from Pancreatic Duct, N = 17
# [27] = sub-population Stent Removal from Pancreatic Duct, N = 17, p 1.0000
# [28] = sub-population Stone Extraction (Balloon), N = 55
# [29] = sub-population Stone Extraction (Balloon), N = 55, p 1.0000
# [30] = sub-population Stone Extraction (Basket), N = 35
# [31] = sub-population Stone Extraction (Basket), N = 35, p 0.2298
substance,measurement,setting,value
"synthetic porcine secretin (HSDGTFTSELSRLRDSARLQRLLQGLV-NH2; ends and bridges not checked; UniProt P63298 33-59, looked up) [SPS, synthetic form of porcine secretin, a 27 amino acid gastrointestinal peptide hormone]",mean number of days required to achieve pre-ERCP activity levels,[1]; in vivo,0.6 (±1.0) days
same,percentage of patients reporting return to baseline activity,"[1]; within the follow-up period (2 to 4 days post-ERCP), p=0.0230 favoring placebo",42.09%
same,patients reported returning to work,"[1]; within the follow-up period, 95 patients in the sPS group, not significant",46.32%
same,Post-ERCP Pancreatitis Severity Total (%),[2]; N = 488/44,100.0%
same,Post-ERCP Pancreatitis Severity Total: number of cases,[2]; N = 488/44,44
same,Post-ERCP Pancreatitis Severity Unknown (%),[2]; of 44 cases,15.91%
same,Post-ERCP Pancreatitis Severity Unknown: number of cases,[2]; of 44 cases,7
same,Post-ERCP Pancreatitis Severity Moderate (%),[2]; [3],20.45%
same,Post-ERCP Pancreatitis Severity Moderate: number of cases,[2]; [3],9
same,Post-ERCP Pancreatitis Severity Severe (%),[2]; [4],2.27%
same,Post-ERCP Pancreatitis Severity Severe: number of cases,[2]; [4],1
same,Post-ERCP Pancreatitis Severity Mild (%),[2]; [5],31.82%
same,Post-ERCP Pancreatitis Severity Mild: number of cases,[2]; [5],14
same,Post-ERCP Pancreatitis Severity Minimal (%),[2]; [6],29.55%
same,Post-ERCP Pancreatitis Severity Minimal: number of cases,[2]; [6],13
same,"Incidence of Post-ERCP Pancreatitis, No (%)","[2]; overall, N = 488, 16 mcg IV",90.98%
same,"Incidence of Post-ERCP Pancreatitis, No: number of patients","[2]; overall, N = 488, 16 mcg IV",444
same,"Incidence of Post-ERCP Pancreatitis, Yes (%)",[2]; [7],9.02%
same,"Incidence of Post-ERCP Pancreatitis, Yes: number of patients",[2]; [7],44
same,magnitude of the decrease in the frequency of post-ERCP pancreatitis,"[2]; relative to placebo, 979 patients, p=0.0137",36.2%
same,Post-ERCP Pancreatitis No (%),[2]; [8],92.52%
same,Post-ERCP Pancreatitis No: number of patients,[2]; [8],334
same,Post-ERCP Pancreatitis Yes (%),[2]; [9],7.48%
same,Post-ERCP Pancreatitis Yes: number of patients,[2]; [9],27
same,Post-ERCP Pancreatitis No (%),[2]; [10],86.36%
same,Post-ERCP Pancreatitis No: number of patients,[2]; [10],190
same,Post-ERCP Pancreatitis Yes (%),[2]; [11],13.64%
same,Post-ERCP Pancreatitis Yes: number of patients,[2]; [11],30
same,Post-ERCP Pancreatitis No (%),[2]; [12],78.95%
same,Post-ERCP Pancreatitis No: number of patients,[2]; [12],15
same,Post-ERCP Pancreatitis Yes (%),[2]; [13],21.05%
same,Post-ERCP Pancreatitis Yes: number of patients,[2]; [13],4
same,Post-ERCP Pancreatitis No (%),[2]; [14],54.58%
same,Post-ERCP Pancreatitis No: number of patients,[2]; [14],6
same,Post-ERCP Pancreatitis Yes (%),[2]; [15],45.45%
same,Post-ERCP Pancreatitis Yes: number of patients,[2]; [15],5
same,Post-ERCP Pancreatitis No (%),[2]; [16],95.00%
same,Post-ERCP Pancreatitis No: number of patients,[2]; [16],133
same,Post-ERCP Pancreatitis Yes (%),[2]; [17],5.00%
same,Post-ERCP Pancreatitis Yes: number of patients,[2]; [17],7
same,Post-ERCP Pancreatitis No (%),[2]; [18],57.85%
same,Post-ERCP Pancreatitis No: number of patients,[2]; [18],14
same,Post-ERCP Pancreatitis Yes (%),[2]; [19],46.15%
same,Post-ERCP Pancreatitis Yes: number of patients,[2]; [19],12
same,Post-ERCP Pancreatitis No (%),[2]; [20],97.22%
same,Post-ERCP Pancreatitis No: number of patients,[2]; [20],105
same,Post-ERCP Pancreatitis Yes (%),[2]; [21],2.78%
same,Post-ERCP Pancreatitis Yes: number of patients,[2]; [21],3
same,Post-ERCP Pancreatitis No (%),[2]; [22],78.26%
same,Post-ERCP Pancreatitis No: number of patients,[2]; [22],18
same,Post-ERCP Pancreatitis Yes (%),[2]; [23],21.74%
same,Post-ERCP Pancreatitis Yes: number of patients,[2]; [23],5
same,Post-ERCP Pancreatitis Yes (%),"[2]; sub-population Stent Insertion into Pancreatic Duct, N = 23, p 1.0000, listed as sPS",21.7%
same,Post-ERCP Pancreatitis No (%),[2]; [24],98.28%
same,Post-ERCP Pancreatitis No: number of patients,[2]; [24],57
same,Post-ERCP Pancreatitis Yes (%),[2]; [25],1.72%
same,Post-ERCP Pancreatitis Yes: number of patients,[2]; [25],1
same,Post-ERCP Pancreatitis No (%),[2]; [26],88.24%
same,Post-ERCP Pancreatitis No: number of patients,[2]; [26],15
same,Post-ERCP Pancreatitis Yes (%),[2]; [27],11.76%
same,Post-ERCP Pancreatitis Yes: number of patients,[2]; [27],2
same,Post-ERCP Pancreatitis No (%),[2]; [28],92.73%
same,Post-ERCP Pancreatitis No: number of patients,[2]; [28],51
same,Post-ERCP Pancreatitis Yes (%),[2]; [29],7.27%
same,Post-ERCP Pancreatitis Yes: number of patients,[2]; [29],4
same,Post-ERCP Pancreatitis No (%),[2]; [30],97.14%
same,Post-ERCP Pancreatitis No: number of patients,[2]; [30],34
same,Post-ERCP Pancreatitis Yes (%),[2]; [31],2.86%
same,Post-ERCP Pancreatitis Yes: number of patients,[2]; [31],1
